As a reminder, the IC50 is the point on the concentration scale where inhibition reaches its midpoint.

Each structure is given as a SMILES string.

Human neutrophil elastase, sequence (P08246 30-247): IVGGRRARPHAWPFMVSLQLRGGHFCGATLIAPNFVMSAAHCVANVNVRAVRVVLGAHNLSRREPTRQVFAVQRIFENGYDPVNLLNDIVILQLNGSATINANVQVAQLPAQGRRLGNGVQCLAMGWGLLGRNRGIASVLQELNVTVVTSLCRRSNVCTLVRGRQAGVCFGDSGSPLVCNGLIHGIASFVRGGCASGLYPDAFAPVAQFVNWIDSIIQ

The assay has as its target Human neutrophil elastase (Homo sapiens (Human), UniProt P08246). Put plainly: Human Neutrophil Elastase Assay. The following applies: substrate MeOSuc-Ala-Ala-Pro-Val-AMC 250 μM, pH 7.5. Type of assay: biochemical.
Compound `CN1C(=O)N(c2cccc(C(F)(F)F)c2)C2=C(C(=O)CC2)C1c1ccc(C#N)cc1C(=O)N[C@H]1C[C@H]1N` (stereo partly shown) [Example 4.14] gave an IC50 of 4.9 nM. Under `CN1C(=O)N(c2cccc(C(F)(F)F)c2)C2=C(C(=O)CC2)C1c1ccc(C#N)cc1C(=O)N1C[C@H]2C[C@@H]1CN2` (stereo partly shown) [Example 4.15] stands 7.3 nM.

In turn, `CC1CN(C(=O)c2cc(C#N)ccc2C2C3=C(CCC3=O)N(c3cccc(C(F)(F)F)c3)C(=O)N2C)CCN1` (stereo not shown) [Example 4.16] returned an IC50 of 10.8 nM. Under `CN1C(=O)N(c2cccc(C(F)(F)F)c2)C2=C(C(=O)CC2)C1c1ccc(C#N)cc1C(=O)N1CC2COCC(C1)N2` (stereo not shown) [Example 4.17] stands 36.2 nM. The figure for `CN1C(=O)N(c2cccc(C(F)(F)F)c2)C2=C(C(=O)CC2)C1c1ccc(C#N)cc1C(=O)N1CCNCC1` (stereo not shown) [Example 4] is 7.5 nM; for `CN1C(=O)N(c2cccc(C(F)(F)F)c2)C2=C(C(=O)CC2)C1c1ccc(C#N)cc1C(=O)NC(C)(C)C#N` (stereo not shown) [Example 5, 5-Cyano-N-(cyano-dimethyl-methyl)-2-[3-methyl-2,5-dioxo-1-(3-trifluoromethyl-phenyl)-2,3,4,5,6,7-hexahydro-1H-cyclopentapyrimidin-4-yl]-benzamide] it is 3.4 nM; for `CN1C(=O)N(c2cccc(C(F)(F)F)c2)C2=C(C(=O)CCC2)C1c1ccc(C#N)cc1C(N)=O` (stereo not shown) [Example 6, 5-Cyano-2-[3-methyl-2,5-dioxo-1-(3-trifluoromethyl-phenyl)-1,2,3,4,5,6,7,8-octahydro-quinazolin-4-yl]-benzamide] it is 1.6 nM. The figure for `CN1C(=O)N(c2cccc(C(F)(F)F)c2)C2=C(C(=O)CCC2)C1c1ccc(C#N)cc1C(=O)N1CCOCC1` (stereo not shown) [Example 6.1] is 2.9 nM; for `CN1CCN(C(=O)c2cc(C#N)ccc2C2C3=C(CCCC3=O)N(c3cccc(C(F)(F)F)c3)C(=O)N2C)CC1` (stereo not shown) [Example 6.2] it is 5.1 nM; for `CN1C(=O)N(c2cccc(C(F)(F)F)c2)C2=C(C(=O)CCC2)C1c1ccc(C#N)cc1C(=O)N1CCNCC1` (stereo not shown) [Example 6.3] it is 3.5 nM. Consider `CN(C)C(=O)c1cc(C#N)ccc1C1C2=C(CCCC2=O)N(c2cccc(C(F)(F)F)c2)C(=O)N1C` (stereo not shown) [Example 6.4], for which the half-inhibitory concentration (IC50) turned out to be 1.1 nM. The figure for `CN1C(=O)N(c2ccnc(C(F)(F)F)c2)C2=C(C(=O)CC2)[C@H]1c1ccc(C#N)cc1C(N)=O` [Example 8, 5-Cyano-2-[(R)-3-methyl-1-(2-trifluoromethyl-pyridin-4-yl)-2,5-dioxo-2,3,4,5,6,7-hexahydro-1H-cyclopentapyrimidin-4-yl]-benzamide] is 41 nM; for `CNC(=O)c1cc(C#N)ccc1C1C2=C(CCC2=O)N(c2ccnc(C(F)(F)F)c2)C(=O)N1C` (stereo not shown) [Example 8.1] it is 25 nM. Under `CN(C)C(=O)c1cc(C#N)ccc1C1C2=C(CCC2=O)N(c2ccnc(C(F)(F)F)c2)C(=O)N1C` (stereo not shown) [Example 8.2] stands 16.8 nM.

Consider `CN1C(=O)N(c2ccnc(C(F)(F)F)c2)C2=C(C(=O)CC2)C1c1ccc(C#N)cc1C(=O)N1CCCC1` (stereo not shown) [Example 8.3], for which the IC50 turned out to be 32.8 nM. Under `CN1C(=O)N(c2ccnc(C(F)(F)F)c2)C2=C(C(=O)CC2)C1c1ccc(C#N)cc1C(=O)N1CCCCC1` (stereo not shown) [Example 8.4] stands 181 nM; under `CN1C(=O)N(c2ccnc(C(F)(F)F)c2)C2=C(C(=O)CC2)C1c1ccc(C#N)cc1C(=O)N1CCOCC1` (stereo not shown) [Example 8.5], 71.6 nM. Under `CN1C(=O)N(c2cccc(C(F)(F)F)c2)C2=C(C(=O)CC2)C1c1ccc(C#N)cc1CN1CCOCC1` (stereo not shown) [Example 9, 4-[3-Methyl-2,5-dioxo-1-(3-trifluoromethyl-phenyl)-2,3,4,5,6,7-hexahydro-1H-cyclopentapyrimidin-4-yl]-3-morpholin-4-ylmethyl-benzonitrile] stands 1.4 nM; under `CC(C)NCc1cc(C#N)ccc1C1C2=C(CCC2=O)N(c2cccc(C(F)(F)F)c2)C(=O)N1C` (stereo not shown) [Example 9.1], 2.1 nM; under `CN1C(=O)N(c2cccc(C(F)(F)F)c2)C2=C(C(=O)CC2)C1c1ccc(C#N)cc1CNC(C)(C)C` (stereo not shown) [Example 9.2], 3.3 nM. Under `CN1C(=O)N(c2cccc(C(F)(F)F)c2)C2=C(C(=O)CC2)C1c1ccc(C#N)cc1CNC1CCOCC1` (stereo not shown) [Example 9.3] stands 2.9 nM; under `CNCc1cc(C#N)ccc1C1C2=C(CCC2=O)N(c2cccc(C(F)(F)F)c2)C(=O)N1C` (stereo not shown) [Example 9.4], 2.2 nM. The compound `CN1C(=O)N(c2cccc(C(F)(F)F)c2)C2=C(C(=O)CC2)C1c1ccc(C#N)cc1-c1cnco1` (stereo not shown) [Example 10, 4-[3-Methyl-2,5-dioxo-1-(3-trifluoromethyl-phenyl)-2,3,4,5,6,7-hexahydro-1H-cyclopentapyrimidin-4-yl]-3-oxazol-5-yl-benzonitrile] gave an IC50 of 1.2 nM. The figure for `CN1C(=O)N(c2cccc(C(F)(F)F)c2)C2=C(C(=O)CC2)C1c1ccc(C#N)cc1-c1ccoc1` (stereo not shown) [Example 11, 3-Furan-3-yl-4-[3-methyl-2,5-dioxo-1-(3-trifluoromethyl-phenyl)-2,3,4,5,6,7-hexahydro-1H-cyclopentapyrimidin-4-yl]-benzonitrile] is 3.3 nM.

`CN1C(=O)N(c2cccc(C(F)(F)F)c2)C2=C(C(=O)CC2)C1c1ccc(C#N)cc1-c1ccn(C)n1` (stereo not shown) [Example 11.1] showed an IC50 of 8.7 nM. The figure for `CN1C(=O)N(c2cccc(C(F)(F)F)c2)C2=C(C(=O)CC2)C1c1ccc(C#N)cc1-c1cncs1` (stereo not shown) [Example 11.3] is 1.9 nM. The compound `CN1C(=O)N(c2cccc(C(F)(F)F)c2)C2=C(C(=O)CC2)C1c1ccc(C#N)cc1C1=CCN(C(=O)OC(C)(C)C)C1` (stereo not shown) [Example 11.4, 3-{5-Cyano-2-[3-methyl-2,5-dioxo-1-(3-trifluoromethyl-phenyl)-2,3,4,5,6,7-hexahydro-1H-cyclopentapyrimidin-4-yl]-phenyl}-2,5-dihydro-pyrrole-1-carboxylic acid tert-butyl ester] had a half-inhibitory concentration (IC50) of 2.5 nM.

`CN1C(=O)N(c2cccc(C(F)(F)F)c2)C2=C(C(=O)CC2)C1c1ccc(C#N)cc1C1=CCCO1` (stereo not shown) [Example 11.5]: the IC50 is less than 1 nM. Under `CN1C(=O)N(c2cccc(C(F)(F)F)c2)C2=C(C(=O)CC2)C1c1ccc(C#N)cc1C1=CCN(C(=O)OC(C)(C)C)CC1` (stereo not shown) [Example 11.6, 4-{5-Cyano-2-[3-methyl-2,5-dioxo-1-(3-trifluoromethyl-phenyl)-2,3,4,5,6,7-hexahydro-1H-cyclopentapyrimidin-4-yl]-phenyl}-3,6-dihydro-2H-pyridine-1-carboxylic acid tert-butyl ester] stands 1.7 nM. Under `CN1C(=O)N(c2cccc(C(F)(F)F)c2)C2=C(C(=O)CC2)C1c1ccc(C#N)cc1-c1ccn(C)c(=O)c1` (stereo not shown) [Example 11.7] stands 1.2 nM; under `CN1C(=O)N(c2cccc(C(F)(F)F)c2)C2=C(C(=O)CC2)C1c1ccc(C#N)cc1-c1ccco1` (stereo not shown) [Example 11.8], 3.3 nM; under `CN1C(=O)N(c2cccc(C(F)(F)F)c2)C2=C(C(=O)CC2)C1c1ccc(C#N)cc1-c1ccncc1` (stereo not shown) [Example 11.9], 1 nM. For `CN1C(=O)N(c2cccc(C(F)(F)F)c2)C2=C(C(=O)CC2)C1c1ccc(C#N)cc1-c1cccnc1` (stereo not shown) [Example 11.10], the midpoint of inhibition, the IC50, lay at 3.1 nM. The figure for `CN1C(=O)N(c2cccc(C(F)(F)F)c2)C2=C(C(=O)CC2)C1c1ccc(C#N)cc1C1=CCOCC1` (stereo not shown) [Example 11.11] is less than 1 nM; for `CN1C(=O)N(c2cccc(C(F)(F)F)c2)C2=C(C(=O)CC2)C1c1ccc(C#N)cc1-c1ccc2c(cnn2C)c1` (stereo not shown) [Example 11.12] it is 7.9 nM. As for `COc1ccc(-c2cc(C#N)ccc2C2C3=C(CCC3=O)N(c3cccc(C(F)(F)F)c3)C(=O)N2C)cn1` (stereo not shown) [Example 11.13], the IC50 was 3.9 nM.

Compound `CN1C(=O)N(c2cccc(C(F)(F)F)c2)C2=C(C(=O)CC2)C1c1ccc(C#N)cc1-c1ccc2c(ccn2C)c1` (stereo not shown) [Example 11.14] registered an IC50 of 6 nM. The figure for `CN1C(=O)N(c2cccc(C(F)(F)F)c2)C2=C(C(=O)CC2)C1c1ccc(C#N)cc1-c1ccc2occc2c1` (stereo not shown) [Example 11.15] is 16 nM; for `CN1C(=O)N(c2cccc(C(F)(F)F)c2)C2=C(C(=O)CC2)C1c1ccc(C#N)cc1-c1ccc(=O)n(C)c1` (stereo not shown) [Example 11.16] it is less than 1 nM; for `CN1C(=O)N(c2cccc(C(F)(F)F)c2)C2=C(C(=O)CC2)C1c1ccc(C#N)cc1-c1nnco1` (stereo not shown) [Example 13, 4-[3-Methyl-2,5-dioxo-1-(3-trifluoromethyl-phenyl)-2,3,4,5,6,7-hexahydro-1H-cyclopentapyrimidin-4-yl]-3-[1,3,4]oxadiazol-2-yl-benzonitrile] it is 2.1 nM. For the compound `Cc1noc(-c2cc(C#N)ccc2C2C3=C(CCC3=O)N(c3cccc(C(F)(F)F)c3)C(=O)N2C)n1` (stereo not shown) [Example 13.2, 4-[3-Methyl-2,5-dioxo-1-(3-trifluoromethyl-phenyl)-2,3,4,5,6,7-hexahydro-1H-cyclopentapyrimidin-4-yl]-3-(3-methyl-[1,2,4]oxadiazol-5-yl)-benzonitrile], the midpoint of inhibition, the IC50, lay at 2.8 nM. The figure for `CN1C(=O)N(c2cccc(C(F)(F)F)c2)C2=C(C(=O)CC2)C1c1ccc(C#N)cc1C1=CCNC1` (stereo not shown) [Example 14, 3-(2,5-Dihydro-1H-pyrrol-3-yl)-4-[3-methyl-2,5-dioxo-1-(3-trifluoromethyl-phenyl)-2,3,4,5,6,7-hexahydro-1H-cyclopentapyrimidin-4-yl]-benzonitrile] is less than 1 nM; for `CN1C(=O)N(c2cccc(C(F)(F)F)c2)C2=C(C(=O)CC2)C1c1ccc(C#N)cc1C1=CCNCC1` (stereo not shown) [Example 14.2] it is less than 1 nM; for `CN1C(=O)N(c2cccc(C(F)(F)F)c2)C2=C(C(=O)CCC2)C1c1ccc(C#N)cc1-c1ccoc1` (stereo not shown) [Example 15, 3-Furan-3-yl-4-[3-methyl-2,5-dioxo-1-(3-trifluoromethyl-phenyl)-1,2,3,4,5,6,7,8-octahydro-quinazolin-4-yl]-benzonitrile] it is 3.2 nM.

`CN1C(=O)N(c2cccc(C(F)(F)F)c2)C2=C(C(=O)CCC2)C1c1ccc(C#N)cc1-c1ccn(C)n1` (stereo not shown) [Example 15.1] yielded an IC50 of 2.8 nM.

`CN1C(=O)N(c2cccc(C(F)(F)F)c2)C2=C(C(=O)CCC2)C1c1ccc(C#N)cc1-c1cnn(C)c1` (stereo not shown) [Example 15.2] came in with an IC50 of 2.4 nM.
